According to US7875604B2, “Compounds that inhibit HIV particle formation” (University of Virginia Patent Foundation, priority 2004, dated 2011):

How the values were obtained:
[1] = tested on: U1 cells; assay: MTS staining for cell viability in U1 cell assay; assay type: cell-based; conditions: analogs, Table 8, MTS, read-out: TC50 (the source's name)
Protocol: (§1) At the time of the assay, cells were collected by centrifugation and counted by hemacytometer. If cell viability by Trypan Blue dye exclusion was less than 70% the assay was terminated. The cells were adjusted to 5×10^4 cells/mL and 100 μL placed in 96 well plates with 100 μL media containing a final concentration of 5 ng/mL TNF-α and the test compound. Cultures were incubated for 3 days and supernatants harvested. Compound toxicity was determined by MTS dye reduction. Virus expression was measured by supernatant reverse transcriptase activity.
At assay termination, the assay plates were stained with the soluble tetrazolium-based dye MTS (CellTiter 96 Reagent, Promega) to determine cell viability and quantify compound toxicity as described for the PBMC assay.
(§2) Compounds were tested in the U1 latency assay using the maximum high-test concentration possible based on the supplied stocks which are listed in table 3. Compounds were tested using the maximum high-test concentration possible based on the supplied stocks. Compounds were prepared at a 2× high-test concentration by combining drug stock with tissue culture media at a ratio of 5 μL of drug to 995 μL of media. This 2× high-test sample was subsequently serially diluted in tissue culture media using 1/2 log dilutions. This series of 2× concentrated drug was subsequently diluted 1:1 by combining with an equal volume of cells in media in the 96-well plates used for the assay. Temacrazine a known inhibitor of HIV transcription was used as a control compound that is active in the post-integration part of the HIV life cycle.
(§3) Compounds were tested using the maximum high-test concentration possible based on the supplied stocks. Compounds were prepared at a 2× high-test concentration by combining drug stock with tissue culture media at a ratio of 5 μL of drug to 995 μL of media. This 2× high-test (HT) sample was subsequently serially diluted in tissue culture media using 1/2 log dilutions. This series of 2× concentrated drug was subsequently diluted 1:1 by combining with an equal volume of cells in media in the 96-well plates used for the assay.

[2] = tested on: U1 cells latently infected with HIV-1; assay: U1 latency activation assay (TNF-α induced, supernatant reverse transcriptase); assay type: cell-based; conditions: U1 cell assay, analogs, Table 8
Protocol: U1 cells were obtained from the AIDS Research and Reference Reagent Program and maintained under standard culture conditions in RPMI 1640 supplemented with 10% fetal bovine serum (heat inactivated), 2 mM L-glutamine, 100 U/mL penicillin and 100 μg/mL streptomycin. U1 cells are derived from the histocytic leukemia cell line U937, and contain an integrated copy of a cytokine and/or phorbol inducible provirus (HIV-1IIIB). Cultures were maintained in such a way as to ensure exponential growth of the populations. Addition of TNF-α to the cell culture induces HIV-1, so that inhibition of virus production indicates an inhibition of a post-integration function of the HIV-1 life cycle. This is where an inhibitor of Rev function would be expected to act. […]
as §1
Reverse transcriptase was assayed to measure virus particle release as described above for the PBMC assay.
as §2, §3

SMILES	CC50 [1] [µM]	IC50 [2] [µM]
N#Cc1c(C(F)(F)F)nc2ccc(F)cc2c1N [Compound 212]	28.6	0.484
Cc1cccc(-c2nc(Nc3ccc(I)cc3)c3ccccc3n2)c1 [Compound 718]	50.1	47.2
FC(F)(F)c1cccc(Nc2nc(-c3ccccc3)nc3ccccc23)c1 [Compound 722]	35	21.9
COc1ccc(-c2cnc(OC(C)(C)C)nc2OC(C)(C)C)cc1OC [Compound 617]	> 75	> 75
CN1CCc2nc3sc(C(N)=O)c(N)c3cc2C1 [Compound 319]	> 37.5	20.2
C=CCc1c(C)nc2ccc(OC)cc2c1N [Compound 214]	> 75	9.19
COc1ccc(-c2cc(-c3ccc(OC)cc3)c3c(N)c(C(N)=O)sc3n2)cc1 [Compound 339]	38.3	1.28
Brc1ccc(Nc2nc(-c3ccncc3)nc3ccccc23)cc1 [Compound 734]	> 12.5	4.07
COc1cc2cc(C(=O)Nc3ccccc3)c(N)nc2cc1OC [Compound 113]	> 75	27.4
CCc1c(C)nc2sc(C(=O)NCC(=O)O)c(N)c2c1C [Compound 331]	> 75	66
O=C(Nc1ccccc1F)c1sc(Cl)nc1C(F)(F)F [Compound 415]	51.2	37.3
CSc1ncc2c(n1)[nH]c1ccccc12 [Compound 616]	> 75	0.915
COc1ccc(Nc2nc(-c3ccccc3F)nc3ccccc23)cc1 [Compound 749]	19.5	2.05
COCc1cc(C)nc2sc(C(N)=O)c(N)c12 [Compound 320]	> 75	0.522
Fc1ccccc1-c1nc(Nc2cccc(C(F)(F)F)c2)c2ccccc2n1 [Compound 748]	33	10.5
Cc1nc(Cl)sc1C(=O)Nc1ccc(C(F)(F)F)cc1 [Compound 418]	> 75	2.18
NC(=O)c1sc2nc(Cc3ccccc3)cc(C(F)(F)F)c2c1N [Compound 334]	> 75	2.37

SMILES	CC50 [1] [µM]	IC50 [2] [µM]
NC(=O)c1sc2nc3c(cc2c1N)CCCC3 [Compound 321]	> 75	1.94
CC(=O)Nc1ccc(Nc2nc(-c3ccccc3)nc3ccccc23)cc1 [Compound 754]	15.1	3.69
Cc1n[nH]c2nc3ccc(Cl)cc3c(-c3ccccc3)c12 [Compound 111]	> 50	1.7
CCCc1ccc2c(N)c(C(N)=O)sc2n1 [Compound 329]	58.4	2.03
Cc1cc2c(N)c(C(N)=O)sc2nc1-c1ccc(F)cc1 [Compound 330]	> 75	6.91
Cc1ccc(NC(=O)c2sc(Cl)nc2C)cc1C [Compound 416]	> 75	0.767
CCOc1ccccc1Nc1nc(-c2ccc(C)cc2)nc2ccccc12 [Compound 730]	> 75	> 75
CCc1c(C)nc2sc(C(=O)c3ccc(Cl)cc3)c(N)c2c1C [Compound 313]	> 50	> 50
Oc1nc(S)nc(O)c1-c1ccccc1 [Compound 613]	> 75	> 75
COc1ccc(-c2cnc(S(C)(=O)=O)nc2)cc1 [Compound 615]	> 75	11.9
CCOC(=O)c1c(C)nc2sc(C(N)=O)c(N)c2c1-c1ccccc1 [Compound 338]	> 75	5.23
NC(=O)c1sc2nc3ccccc3cc2c1N [Compound 337]	> 75	2.4
N#Cc1ccc(NC(=O)c2sc(Cl)nc2-c2ccccc2)cc1 [Compound 421]	> 75	> 75
NC(=O)c1sc2nc(-c3cccs3)cc(C(F)(F)F)c2c1N [Compound 317]	> 75	> 75
COc1cc2cc3c(=O)[nH]c(-c4ccc(C)cc4)nc3nc2cc1OC [Compound 114]	> 75	14.4
Oc1nc(S)ncc1-c1ccccc1 [Compound 612]	> 75	> 75
